Data on 10 compounds can be found in patent US9686985B2, “Fungicide N-cycloalkyl-N-bicyclicmethylene-carboxamide derivatives” (BAYER INTELLECTUAL PROPERTY GMBH, priority 2012, dated 2017).

The test system of data set [1] is Puccinia recondita. The experiment in a line: Example R: in vivo preventive test on Puccinia recondita (brown rust on wheat). The note with it: table R; 500 ppm; wheat plants; grading 12 days after contamination. The protocol: Example R: In Vivo Preventive Test on Puccinia recondita (Brown Rust on Wheat) […] Wheat plants (“Scipion” variety), sown in starter cups on a 50/50 peat soil pozzolana substrate and grown at 22° C., are treated at the 1 leaf stage (10 cm height) by spraying with the active ingredient prepared as described above. Plants, used as controls, are treated with the mixture of acetone/tween/DMSO/water not containing the active material. After 24 hours, the plants are contaminated by spraying the leaves with an aqueous suspension of Puccinia recondita spores (100 000 spores per mL). The spores are collected from an infected plant and are suspended in water containing 2.5 mL/L of Tween 80 at 10%. The contaminated wheat plants are incubated for 24 hours at 20° C. and at 100% relative humidity, and then for 10 days at 20° C. and at 70-80% relative humidity. Grading (% of efficacy) is carried out 12 days after the contamination, in comparison with the control plants.

For data set [2], the system named is Septoria tritici. The data set is described as follows: Example L: in vivo preventive test on Septoria tritici (wheat). The note with it: table L; 500 ppm; wheat plants; grading 24 days after contamination. The method, then:
Example L: In Vivo Preventive Test on Septoria tritici (Wheat) […] Wheat plants (“Scipion” variety), sown in starter cups on a 50/50 peat soil pozzolana substrate and grown at 22° C., are treated at the 1 leaf stage (10 cm height) by spraying with the active ingredient prepared as described above. Plants, used as controls, are treated with the mixture of acetone/tween/DMSO/water not containing the active material. After 24 hours, the plants are contaminated by spraying the leaves with an aqueous suspension of cryopreserved Septoria tritici spores (500 000 spores per mL). The contaminated wheat plants are incubated for 72 hours at 18° C. and at 100% relative humidity, and then for 21 days at 90% relative humidity. Grading (% of efficacy) is carried out 24 days after the contamination, in comparison with the control plants.

Data set [3] concerns Pyrenophora teres. The data set is described as follows: Example N: in vivo preventive test on Pyrenophora teres (barley). The note with it: table N; 500 ppm; barley plants; grading 14 days after contamination. The protocol:
Example N: In Vivo Preventive Test on Pyrenophora teres (Barley) […] Barley plants (“Plaisant” variety), sown in starter cups on a 50/50 peat soil pozzolana substrate and grown at 22° C., are treated at the 1 leaf stage (10 cm height) by spraying with the active ingredient prepared as described above. Plants, used as controls, are treated with the mixture of acetone/tween/DMSO/water not containing the active material. After 24 hours, the plants are contaminated by spraying the leaves with an aqueous suspension of Pyrenophora teres spores (12 000 spores per mL). The spores are collected from a 12-day-old culture. The contaminated barley plants are incubated for 48 hours at 20° C. and at 100% relative humidity, and then for 12 days at 20° C. at 70-80% relative humidity. Grading (% of efficacy) is carried out 14 days after the contamination, in comparison with the control plants.

Data set [4] in a line: log P by HPLC on reversed-phase column (EEC Directive 79/831 Annex V.A8). The class given is physicochemical. The note with it: for logP: Table 1, HPLC C18, 40° C., 0.1% aqueous formic acid and acetonitrile gradient. The method, then:
In table 1, the log P values were determined in accordance with EEC Directive 79/831 Annex V.A8 by HPLC (High Performance Liquid Chromatography) on a reversed-phase column (C 18), using the method described below: Temperature: 40° C.; Mobile phases: 0.1% aqueous formic acid and acetonitrile; linear gradient from 10% acetonitrile to 90% acetonitrile. Calibration was carried out using unbranched alkan-2-ones (comprising 3 to 16 carbon atoms) with known log P values (determination of the log P values by the retention times using linear interpolation between two successive alkanones). lambda-max-values were determined using UV-spectra from 200 nm to 400 nm and the peak values of the chromatographic signals.

Data set [5] concerns Uromyces appendiculatus. The experiment in a line: Example G: in vivo preventive test on Uromyces appendiculatus (bean rust). The note with it: table G1; 500 ppm; bean plants; grading 11 days after contamination. The protocol: Example G: In Vivo Preventive Test on Uromyces appendiculatus (Bean Rust) […] Bean plants (“Saxa” variety), sown in starter cups on a 50/50 peat soil pozzolana substrate and grown at 24° C., are treated at the 2 leaf stage (9 cm height) by spraying with the active ingredient prepared as described above. Plants, used as controls, are treated with the mixture of acetone/tween/DMSO/water not containing the active material. After 24 hours, the plants are contaminated by spraying the leaves with an aqueous suspension of Uromyces appendiculatus spores (150 000 spores per mL). The spores are collected from infected plants and are suspended in water containing 2.5 mL/L of Tween 80 at 10%. The contaminated bean plants are incubated for 24 hours at 20° C. and at 100% relative humidity, and then for 10 days at 20° C. and at 70-80% relative humidity. Grading (% of efficacy) is carried out 11 days after the contamination, in comparison with the control plants.

Data set [6] concerns Botrytis cinerea. The data set is described as follows: Example S: in vivo preventive test on Botrytis cinerea (grey mould). The note with it: table S; 500 ppm; gherkin plants; grading 4 to 5 days after contamination. The protocol:
Example S: In Vivo Preventive Test on Botrytis cinerea (Grey Mould) […] Gherkin plants (“Vert petit de Paris” variety), sown in starter cups on a 50/50 peat soil pozzolana substrate and grown at 24° C., are treated at the Z11 cotyledon stage by spraying with the active ingredient prepared as described above. Plants, used as controls, are treated with the mixture of acetone/tween/DMSO/water not containing the active material. After 24 hours, the plants are contaminated by spraying the cotyledons with an aqueous suspension of cryopreserved Botrytis cinerea spores (50 000 spores per mL). The spores are suspended in a nutrient solution composed of 10 g/L of PDB, 50 g/L of D-Fructose, 2 g/L of NH4NO3 and 1 g/L of KH2PO4. The contaminated gherkin plants are incubated at 17° C. and at 90% relative humidity. Grading (% of efficacy) is carried out 4 to 5 days after the contamination, in comparison with the control plants.

Data set [7] deals with Alternaria brassicae. The experiment in a line: Example D: in vivo preventive test on Alternaria brassicae (leaf spot on radish). The note with it: table D; 500 ppm; radish plants; grading 6 days after contamination. The protocol: Example D: In Vivo Preventive Test on Alternaria brassicae (Leaf Spot on Radish) […] Radish plants (“Pernod Clair” variety), sown in starter cups on a 50/50 peat soil pozzolana substrate and grown at 17° C., are treated at the cotyledon stage by spraying with the active ingredient prepared as described above. Plants, used as controls, are treated with the mixture of acetone/tween/DMSO/water not containing the active material. After 24 hours, the plants are contaminated by spraying the cotyledons with an aqueous suspension of Alternaria brassicae spores (50 000 spores per mL). The spores are collected from a 15-day-old culture. The contaminated radish plants are incubated at 20° C. and at 100% relative humidity. Grading (% of efficacy) is carried out 6 days after the contamination, in comparison with the control plants.

In data set [8] the test system is Sphaerotheca fuliginea. The data set is described as follows: Example B: in vivo preventive test on Sphaerotheca fuliginea (powdery mildew on cucurbits). The note with it: table B; 500 ppm; gherkin plants; grading 12 days after contamination. The method, then: Example B: In Vivo Preventive Test on Sphaerotheca fuliginea (Powdery Mildew on Cucurbits) […] Gherkin plants (“Vert petit de Paris” variety), sown in starter cups on a 50/50 peat soil-pozzolana substrate and grown at 24° C., are treated at the Z11 cotyledon stage by spraying with the active ingredient prepared as described above. Plants, used as controls, are treated with the mixture of acetone/tween/DMSO/water not containing the active material. After 24 hours, the plants are contaminated by spraying the cotyledons with an aqueous suspension of Sphaerotheca fuliginea spores (100 000 spores per mL). The spores are collected from infected plants. The contaminated gherkin plants are incubated at about 20° C. and at 70-80% relative humidity. Grading (% of efficacy) is carried out 12 days after the contamination, in comparison with the control plants.

For the compound `Cn1nc(C(F)F)c(C(=O)N(CC2CCSc3ccc(Cl)cc32)C2CC2)c1F` (stereo not drawn) [I.36], the Efficacy in data set [1] was 78%; in data set [2], 79%; in data set [3], 94%; in data set [5], 100%; in data set [6], 97%; in data set [7] it was 100%. The Efficacy in data set [8] turned out to be 85%. This compound also showed a logP in data set [4] of 3.83.

Consider `Cn1nc(C(F)F)c(C(=O)N(CC2CCCc3cccc(Cl)c32)C2CC2)c1F` (stereo not drawn) [I.28], for which the Efficacy in data set [2] amounted to 100%; in data set [3], 94%; in data set [5] it was 88%; in data set [6], 100%; in data set [7], 100%; in data set [8], 100%. The same compound displayed a logP in data set [4] of 4.09.

For `Cn1nc(C(F)F)c(C(=O)N(CC2CCc3ccc(C(F)(F)F)cc32)C2CC2)c1F` (stereo not drawn) [I.17], the Efficacy in data set [1] is recorded as 100%; in data set [2], 94%; in data set [3], 86%; in data set [5], 100%; in data set [6] it was 100%; in data set [8] it was 100%. In data set [4], this compound returned a logP of 3.87.

On to `Cn1nc(C(F)F)c(C(=S)N(CC2CCc3c(Cl)cc(Cl)cc32)C2CC2)c1F` (stereo not drawn) [I.20], for which the Efficacy was 83% in data set [1]; 97% in data set [2]; 100% in data set [3]; 100% in data set [5]; 75% in data set [6]; 100% in data set [7]. Further, the Efficacy in data set [8] was found to be 100%. This compound also registered a logP in data set [4] of 5.22.

As for `COc1cccc2c1CCCC2CN(C(=O)c1c(C(F)F)nn(C)c1F)C1CC1` (stereo not drawn) [I.26, N-cyclopropyl-3-(difluoromethyl)-5-fluoro-N-[(5-methoxy-1,2,3,4-tetrahydronaphthalen-1-yl)methyl]-1-methyl-1H-pyrazole-4-carboxamide], the Efficacy in data set [3], in data set [6], in data set [7] and in data set [8] was 100% each time. This compound also showed a chromatographic logP in data set [4] of 3.65.

Turning to `Cn1nc(C(F)F)c(C(=O)N(CC2CCSc3ccc(F)cc32)C2CC2)c1F` (stereo not drawn) [I.35], the Efficacy in data set [1] is reported as 78%; in data set [3], 98%; in data set [5] it was 100%; in data set [6], 100%; in data set [7] it was 88%; in data set [8], 80%. This compound gave a logP in data set [4] of 3.44.

As for `Cn1nc(C(F)F)c(C(=S)N(CC2CC(C)(C)c3ccccc32)C2CC2)c1F` (stereo not drawn) [I.11], the Efficacy in data set [1] was found to be 94%; in data set [2], 100%; in data set [3], 100%; in data set [6], 100%; in data set [7], 100%; in data set [8], 100%. In addition, the logP in data set [4] was found to be 4.69.

Turning to `Cn1nc(C(F)F)c(C(=O)N(CC2CCc3ccc(C(F)(F)F)cc32)C2CC2)c1Cl` (stereo not drawn) [I.16], the Efficacy came to 88% in data set [1]; 98% in data set [2]; 100% in data set [5]; 100% in data set [6]; 100% in data set [8]. This compound also registered a logP in data set [4] of 4.04.

Consider `Cn1nc(C(F)F)c(C(=O)N(CC2CSCc3ccccc32)C2CC2)c1F` (stereo not drawn) [I.34], for which the Efficacy is 93% in data set [2]; 94% in data set [3]; 100% in data set [6]; 100% in data set [7]; 90% in data set [8]. The compound further registered a logP in data set [4] of 3.21.

Consider `CC1CCC(CN(C(=O)c2c(C(F)F)nn(C)c2F)C2CC2)c2ccccc21` (stereo not drawn) [I.24], for which the Efficacy came out at 94% in data set [1]; 100% in data set [2]; 100% in data set [3]; 100% in data set [5]; 100% in data set [6]; 100% in data set [7]. In data set [8], the Efficacy amounted to 100%. In data set [4], the logP was 3.96.

In general, logP refers to a log measure of how a compound divides between an organic and an aqueous phase. The term chromatographic logP denotes lipophilicity estimated from chromatographic retention. Read a low chromatographic logP as a more hydrophilic compound.
